Measured values published in ChEMBL document CHEMBL3352662, “Flow synthesis and biological activity of aryl sulfonamides as selective carbonic anhydrase IX and XII inhibitors” (Bioorg Med Chem Lett, 2014).

Columns and labels:
Carbonic anhydrase 2 [1] = biological target: T1, Carbonic anhydrase 2 (Homo sapiens, UniProt P00918); experiment: Inhibition of CA-2 (unknown origin) at 10 uM after 15 mins by CO2 hydration assay
Carbonic anhydrase 2 [2] = biological target: T1, Carbonic anhydrase 2; experiment: Inhibition of CA-2 (unknown origin) after 15 mins by CO2 hydration assay
Carbonic anhydrase 1 [3] = biological target: T2, Carbonic anhydrase 1 (Homo sapiens, UniProt P00915); experiment: Inhibition of CA-1 (unknown origin) at 10 uM after 15 mins by CO2 hydration assay
Target sequence in this assay (P00915 2-261 limits assumed): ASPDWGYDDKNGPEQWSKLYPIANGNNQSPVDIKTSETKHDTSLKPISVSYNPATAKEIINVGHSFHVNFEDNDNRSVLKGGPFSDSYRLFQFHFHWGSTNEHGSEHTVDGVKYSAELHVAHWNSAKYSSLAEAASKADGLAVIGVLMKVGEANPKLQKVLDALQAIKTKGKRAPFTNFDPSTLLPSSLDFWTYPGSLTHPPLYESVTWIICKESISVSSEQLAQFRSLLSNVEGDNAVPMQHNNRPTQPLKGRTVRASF

Carbonic anhydrase 9 = Carbonic anhydrase 9 (Homo sapiens, UniProt Q16790); experiment: Inhibition of CA-9 (unknown origin) after 15 mins by CO2 hydration assay
Carbonic anhydrase 1 [4] = biological target: T2, Carbonic anhydrase 1; experiment: Inhibition of CA-1 (unknown origin) after 15 mins by CO2 hydration assay
Target sequence in this assay (P00915 whole entry): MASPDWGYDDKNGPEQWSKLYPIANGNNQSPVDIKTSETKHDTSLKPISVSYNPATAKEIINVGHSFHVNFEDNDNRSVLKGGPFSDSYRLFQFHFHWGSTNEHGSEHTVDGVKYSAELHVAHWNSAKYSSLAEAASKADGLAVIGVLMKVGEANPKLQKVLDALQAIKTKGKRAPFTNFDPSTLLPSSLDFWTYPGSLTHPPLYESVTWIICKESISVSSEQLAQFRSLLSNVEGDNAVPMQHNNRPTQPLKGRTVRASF

Carbonic anhydrase 12 = Carbonic anhydrase 12 (Homo sapiens, UniProt O43570); experiment: Inhibition of CA-12 (unknown origin) after 15 mins by CO2 hydration assay
Chain of Carbonic anhydrase 12 (O43570 whole entry): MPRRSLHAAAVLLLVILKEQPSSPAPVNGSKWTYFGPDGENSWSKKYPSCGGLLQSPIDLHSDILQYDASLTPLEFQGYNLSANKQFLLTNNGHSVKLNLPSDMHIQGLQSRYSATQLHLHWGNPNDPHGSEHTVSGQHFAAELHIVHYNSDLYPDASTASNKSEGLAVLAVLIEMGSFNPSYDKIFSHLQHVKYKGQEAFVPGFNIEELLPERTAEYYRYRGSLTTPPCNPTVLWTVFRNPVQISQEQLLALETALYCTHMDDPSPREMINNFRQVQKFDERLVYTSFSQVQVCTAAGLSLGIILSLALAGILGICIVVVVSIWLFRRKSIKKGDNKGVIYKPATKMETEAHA

Compound	inhibition (Carbonic anhydrase 2 [1]) [%]	IC50 (Carbonic anhydrase 2 [2]) [µM]	inhibition (Carbonic anhydrase 1 [3]) [%]	IC50 (Carbonic anhydrase 9) [µM]	IC50 (Carbonic anhydrase 1 [4]) [µM]	IC50 (Carbonic anhydrase 12) [µM]
CC(=O)c1ccc(S(=O)(=O)Nc2ccccc2)cc1	47	> 50	36	0.074	> 50	
COc1ccc(S(=O)(=O)Nc2ccccc2)cc1OC	45	> 50	39	0.079	> 50	0.179
O=[N+]([O-])c1ccc(S(=O)(=O)Nc2ccccc2)cc1		7.32	39	0.128	> 50	
Cc1ccc(S(=O)(=O)Nc2ccccc2-c2ccccc2)cc1		5.1	38	0.09	> 50	0.226
Cc1ccc(S(=O)(=O)N(C)c2ccccc2)cc1	45	> 50	39	0.093	> 50	0.266

The next lines start with the values.

inhibition (Carbonic anhydrase 2 [1]) [%]	IC50 (Carbonic anhydrase 2 [2]) [µM]	inhibition (Carbonic anhydrase 1 [3]) [%]	IC50 (Carbonic anhydrase 9) [µM]	IC50 (Carbonic anhydrase 1 [4]) [µM]	IC50 (Carbonic anhydrase 12) [µM]	Compound
	3.62	39	0.217	> 50		Cc1ccc(S(=O)(=O)NCC(=O)O)cc1
45	> 50	35	0.09	> 50		Cc1ccc(S(=O)(=O)Nc2ccccc2)cc1
	8.07	40	0.07	> 50		CCCC(C)NS(=O)(=O)c1ccc(C)cc1 (centres undefined)
44	> 50	34	0.076	> 50	4.28	Cc1ccc(S(=O)(=O)NCc2ccccc2)cc1
	6.67	39	0.094	> 50		Cc1ccc(S(=O)(=O)NCCCN(C)C)cc1
